Test results from patent US20020019991A1, “COMPOSITIONS CONTAINING AN ALPHA 1,2-FUCOSE LINKAGE AND USES THEREOF” (ABBOTT LABORATORIES, priority 1998, published 2002).

Experiments:
V. cholerae = test: Competitive assay: inhibition of V. cholerae attachment to transfected CHO (α1-2 FT) cells, colony counting; type: cell-based, Vibrio cholerae
Method: (§1) To determine whether 2′Fucosyllactose is an important chemical structure of the cell receptor for V. cholerae and enterohemorrhagic E. coli (EHEC), a competitive assay was set up. A volume of 400 ul of a suspension of transfected CHO (α1-2 FT) cells at a concentration of 4×10^5 cells/mL was placed in each well of an 8-well microchamber slide (Lab-Tek, Nunc, Inc. Naperville, Ill.). Cells were incubated overnight at 37° C. in a 5% CO2 atmosphere. A bacterial suspension of 1.5×10^8 of V. cholerae was added with either 0.5, 1, or 2 mg/mL of 2′fucosyllactose and incubated at 37° C. Wells were washed 6 times with PBS. Cells were detached with […] of triton x 100 and serial dilutions in TBS or McConkey agar plates were done for colony counting.

[1] = tested on: enterohemorrhagic E. coli (EHEC); test: Competitive assay: inhibition of EHEC attachment to transfected CHO (α1-2 FT) cells, colony counting; type: cell-based, Escherichia coli
Method: as §1

[2] = tested on: Vibrio cholerae 01 Ogawa strain 2995; type: binding
[3] = tested on: Enterohemorrhagic Escherichia coli (EHEC) 0157:H7 strain 933; type: binding
[4] = tested on: Enteropathogenic E. coli (EPEC); type: binding, Escherichia coli

Molecule | dose dependence of inhibition of bacterial cell attachment (V. cholerae; 0.5, 1, or 2 mg/mL) | inhibition of bacterial cell attachment (V. cholerae; transfected CHO (α1-2 FT) cells, concentration as low as 0.5 mg/ml) | inhibition of binding, EHEC compared with V. cholerae ([1]; EHEC versus V. cholerae, transfected CHO cells) | dose dependence of inhibition of bacterial cell attachment ([1]; EHEC, 0.5, 1, or 2 mg/mL) | inhibition of bacterial cell attachment ([1]; EHEC, transfected CHO (α1-2 FT) cells, concentration as low as 0.5 mg/ml) | binding of V. cholerae to immobilized blood group antigen neoglycoprotein [2] | binding of EHEC to immobilized blood group antigen neoglycoprotein [3] | binding of EPEC to immobilized blood group antigen neoglycoprotein [4]
C[C@@H]1O[C@@H](O[C@H]2[C@H](O[C@H]3[C@H](O)[C@@H](O)C(O)O[C@@H]3CO)O[C@H](CO)[C@H](O)[C@@H]2O)[C@@H](O)[C@H](O)[C@@H]1O (some centres unmarked) [2′fucosyllactose, 2′-fucosyllactose (Fucα1-2Galβ1-4Glc)] | dose-dependent inhibition | significant inhibition | greater inhibition | dose-dependent inhibition | significant inhibition |  |  | 
Lewis^x |  |  |  |  |  | stronger binding | stronger binding | stronger binding
